Data set [1] has as its system Babesia Bovis, Babesia Canis. Kind of data set: In vitro anti-Babesia activity, (3H) hypoxanthine incorporation. The data set is classed as cell-based. The conditions noted are these: read-out: Activité/ Babesia à 10 millimole. The source says: Le procédé de criblage d'activité anti-malaria, basé sur l'incorporation de l'(^3H) Hypoxanthine par le parasite, est utilisé pour tester l'activité anti-métabolique de tels composés sur Babesia Bovis, Babesia Canis. Une relation étroite est trouvée entre le taux d'incorporation de (^3H) Hypoxanthine dans une mesure standard et le pourcentage de cellules parasitées, déterminé par examen microscopique. Cette activité métabolique est quantifiée et évaluée dans le tableau ci-dessous par la cotation +++ pour les molécules affichant dans le test une inhibition de 50 % de l'incorporation de (^3H) Hypoxanthine (ID 50), ces molécules étant à une concentration inférieure ou égale à 0,01 Micromolaire. La cotation est de ++ pour la même activité à une concentration de 0,01 à 0.1 micromolaire et enfin de + pour une concentration inférieure ou égale à 1 Micromolaire.

A further data set has as its system Plasmodium falciparum. Description: In vitro antimalarial activity, (3H) hypoxanthine incorporation in infected human erythrocytes (Desjardins test). The data set is classed as cell-based. Particulars: Plasmodium falciparum, Erythrocyte, read-out: IC50 exprimée en micromoles. An excerpt:
L'activité antipaludéenne des dérivés selon les exemples précédents est testée sur l'humain infesté par Plasmodium falciparum. Le produit à tester est mis en contact avec les érythrocytes humains infectés pendant 24 heures. Un précurseur radioactif d'acides nucléiques l'Hypoxanthine (^3H) est ensuite ajouté. Le précurseur ne s'incorpore que dans les cellules infectées par un parasite en croissance, c'est à dire dans les cellules que la drogue n'aura pas affectées.
L'aptitude ou non à incorporer le précurseur reflète donc la viabilité des cellules impaludées. La durée des tests est de 60 à 70 heures ( test de DESJARDINS R.E. , CANFIELD C.J., HATNES J.D. et CHULAY J.D., Antimicrob. Agents Chemother. 1979, 16, p 710-718 ). Les résultats sont consignés dans le tableau I ci-après, sous forme de IC50 (ou DE50), soit la concentration de produit dans le milieu expérimental capable d'inhiber in vitro la croissance du parasite d'une valeur de 50%.

Data set [2] can be described thus: Therapeutic index in infected mice: 4-day Peters test activity versus semi-chronic toxicity (DL 50). It counts as in vivo, souris Swiss mâles. Particulars: mouse, in vivo, ratio of activity to toxicity under identical conditions, intraperitoneal or subcutaneous, twice a day for 4 days, read-out: Index thérapeutique. The source says:
(§1) Afin d'évaluer l'index thérapeutique des divers produits, on a mesuré l'activité de ceux-ci dans un test in vivo et comparé à la toxicité aiguë chez l'animal . Cette activité est mesurée suivant le test décrit par PETERS W. ( Chemotherapy and Drug résistance in Malaria, 1970). Un composé est administré pendant quatre jours consécutifs à des souris préalablement impaludées par Plasmodium vinckei, petteri, ou chabaudi, ledit composé étant dissous dans une solution de NaCI à 0.9 %. Les préparations sont ainsi administrées par voie intrapéritonéale ou par voie sous-cutanée à des souris Swiss mâles infectées par voie IV, avec Plasmodium petterei ou Plasmodium chabaudi (10^6 cellules infectées ). Le composé est administré deux fois par jour pendant 4 jours consécutifs, la première injection étant pratiquée 2 heures après l'infestation et la deuxième, 10 heures après. La parasitémie est déterminée par un frottis, le jour suivant la fin du traitement. La toxicité est mesurée in vivo selon la même méthode, les animaux ayant reçu dans les conditions d'administration ci-dessus, 2 injections par jour pendant 4 jours ( toxicité semi chronique). Les résultats sont exprimés sous forme de DL 50, soit la dose ayant entraîné la mort de 50% des animaux.
(§2) Les résultats des essais sont résumés dans le tableau I ci-après sous forme d'index thérapeutique, soit le rapport de l'activité à la toxicité mésurées dans des conditions identiques comme décrit ci-dessus.

Data set [3] deals with Plasmodium vinckei, petteri, ou chabaudi. Described as above. It counts as in vivo, souris Swiss mâles. The conditions noted are these: ratio of activity to toxicity under identical conditions, intraperitoneal or subcutaneous, twice a day for 4 days.
Description: as §1, §2

Setting [4] is: class of ID 50 for (3H) hypoxanthine incorporation.
Setting [5] is: concentration inhibiting in vitro parasite growth by 50 %, human erythrocytes infected with Plasmodium falciparum, 24 h contact, test lasts 60 to 70 h.

Where two headings read alike, the source gives them in different places. Bounds are passed on as bounds.

As for `C[N+]1(CCCCCCCCCCCCCCCC[N+]2(C)CCCC(CO)C2)CCCC(CO)C1` (stereo not drawn) [EXEMPLE 20, 1,1'-(1,16-hexadecanediyl) bis (1-methyl-3hydroxy methyl piperidinium) dibromure], the IC50 in data set [1] (setting [4]) was < 10 nM; in the data set on Plasmodium falciparum (setting [5]), 0.3 nM. In data set [2], the selectivity ratio came out at 17.

Take `C=CC[N+](C)(C)CCCCCCCCCCCCCC[N+](C)(C)CC=C` [EXEMPLE 25, N,N'-di (2-propenyl)-N,N,N',N'-tetramethyl-1,14 tetradecane diaminium dibromure]: the IC50 in data set [1] was < 10 nM; with Plasmodium falciparum, 5 nM. Also, the “Index thérapeutique” value in data set [3] was 15.

For the molecule `C[N+]1(CCCCCCCCCCCCCC[N+]2(C)CCCC2)CCCC1` [EXEMPLE 16, 1,1'-(1,14-tetradecanediyl) bis (1-methylpyrrolidinium) dibromure], the IC50 is < 10 nM in data set [1] and 0.9 nM in the data set with Plasmodium falciparum. In addition, the “Index thérapeutique” value in data set [3] was found to be 8.

Take `CC[N+](C)(CC)CCCCCCCCCCCCCCCCCC[N+](C)(CC)CC` [EXEMPLE 14, N,N'-dimethyl-N,N,N',N'-tetraethyl-1,18 octadecanediaminium, dibromure]: the IC50 is < 10 nM in data set [1] and 0.04 nM in the data set with Plasmodium falciparum. For the same molecule, in data set [3], the “Index thérapeutique” value stood at 14.

Regarding `C[N+]1(CCCCCCCCCCCCCCCC[N+]2(C)CCCC2CO)CCCC1CO` (stereo not drawn) [EXEMPLE 18, 1,1'-(1, 16-hexadecanediyl) bis (2-hydroxymethyl-1-methylpyrrolidinium) dibromure], the IC50 in data set [1] (setting [4]) was < 10 nM; in the data set with Plasmodium falciparum (setting [5]), 1 nM. Moreover, the selectivity ratio in data set [2] worked out at 22.
